Results as given in patent publication US20240300886A1, “ARYLCYCLOHEXYLAMINE DERIVATIVES AND THEIR USE IN THE TREATMENT OF PSYCHIATRIC DISORDERS” (GILGAMESH PHARMACEUTICALS, INC., priority 2021, published 2024).

Key:
[1] = biological target: MK-801 binding site of the N-methyl-D-aspartate receptor (NMDAR); experiment: NMDA receptor radioligand binding with [3H]MK-801; design: species or system Wistar rat; details: [3H]MK-801 displacement, Wistar rat brain (minus cerebellum); read-out: NMDAR Ki (95% CI)
Procedure: The binding affinities of disclosed compounds at the MK-801 binding site of the N-methyl-D-aspartate receptor (NMDAR) were determined in radioligand binding experiments (Table 13).
Radioligand Binding. Affinity of the test compounds for NMDAR was determined in radioligand binding experiments with [^3H]MK-801 by Eurofins Panlabs, Inc., using methods adapted from the literature (Javitt el al. 1987; Reynolds et al. 1989) and under the conditions described in Table 14.

[2] = Metabolic stability in human liver microsomes (HLM); type: in vitro ADME; details: 0.50 mg protein/mL, NADPH
Procedure: (§1) HLM Stability. Pooled HLM from adult male and female donors (Corning 452117) were used. Microsomal incubations were carried out in multi-well plates. Liver microsomal incubation medium consisted of PBS (100 mM, pH 7.4), MgCl2 (1 mM), and NADPH (1 nmM), with 0.50 mg of liver microsomal protein per mL. Control incubations were performed by replacing the NADPH-cofactor system with PBS. Test compounds (1 μM, final solvent concentration 1.0%) were incubated with microsomes at 37° C. with constant shaking, Six time points over 60 minutes were analyzed, with 60 μL aliquots of the reaction mixture being drawn at each time point. The reaction aliquots were stopped by adding 180 μL of cold (4° C.) acetonitrile containing 200 ng/mL tolbutamide and 200 ng/mL labetalol as internal standards (IS), followed by shaking for 10 minutes, and then protein sedimentation by centrifugation at 4,000 rpm for 20 minutes at 4° C. Supernatant samples (80 μL) were diluted with water (240 μL) and analyzed for parent compound remaining using a fit-for-purpose liquid chromatography-tandem mass spectrometry (LC-MS/MS) method.
(§2) Data Analysis. The elimination constant (kel), half-life (t1/2) and intrinsic clearance (Clint) were determined in a plot of […] versus time, using linear regression analysis.

[3] = Metabolic stability in mouse liver microsomes (MLM); type: in vitro ADME, CD-1 mice; details: male, CD-1, mouse, pooled mouse liver microsomes, pH 7.4, 1 μM compound, 0.50 mg protein/mL, NADPH
Procedure: as §1, with “MLM” for “HLM”, “from” for “from adult”, “CD-1 mice (XenoTech M1000)” for “and female donors (Corning 452117)”, “mM),” for “nmM),”, “shaking.” for “shaking,”
Data Analysis. The elimination constant (kel), half-life (t1/2) and intrinsic clearance (Clint) were determined in a plot of ln(AUC) versus […], using linear regression analysis.

[4] = Metabolic stability in rat liver microsomes (RLM); type: in vitro ADME, Sprague Dawley rats; details: male, Sprague Dawley, rat, pooled rat liver microsomes, pH 7.4, 1 μM compound, 0.50 mg protein/mL, NADPH
Procedure: as §1, with “RLM” for “HLM”, “from” for “from adult”, “Sprague Dawley rats (XenoTech R1000)” for “and female donors (Corning 452117)”, “mM),” for “nmM),”, “shaking.” for “shaking,”
as §2

[5] = Metabolic stability in dog liver microsomes (DLM); type: in vitro ADME, beagle dogs; details: male, beagle, dog, pooled dog liver microsomes, pH 7.4, 1 μM compound, 0.50 mg protein/mL, NADPH
Procedure: as §1, with “DLM” for “HLM”, “from” for “from adult”, “beagle dogs (XenoTech D1000)” for “and female donors (Corning 452117)”, “mM),” for “nmM),”, “shaking.” for “shaking,”, “([…]),” for “(IS),”
as §2

[6] = Metabolic stability in cynomolgus monkey liver microsomes (CLM); type: in vitro ADME, cynomolgus monkeys; details: male, cynomolgus monkey, pooled cynomolgus monkey liver microsomes, pH 7.4, 1 μM compound, 0.50 mg protein/mL, NADPH
Procedure: as §1, with “CLM” for “HLM”, “from” for “from adult”, “cynomolgus monkeys” for “and female donors”, “452413)” for “452117)”, “mM),” for “nmM),”, “shaking.” for “shaking,”
as §2

[7] = biological target: serotonin transporter (SERT) (Homo sapiens (Human), UniProt P31645); experiment: SERT fluorescent substrate uptake inhibition in transfected cells; type: cell-based; details: stably transfected cells expressing SERT
Procedure: The ability of disclosed compounds to inhibit uptake of monoamines by the serotonin transporter (SERT) was measured using a fluorescent substrate uptake assay in transfected cells (Table 15). […] Considering that inhibitors of SERT are well known to have antidepressant and anxiolytic effects and are among the most commonly prescribed drugs for mood disorders (e.g. fluoxetine, sertraline, etc.), blockade of SERT by certain compounds of the present disclosure is expected to synergize with their NMDAR inhibition to increase therapeutic activity for treating depression and related disorders. […] Further, the ability to tune the ratio between SERT and NMDAR is useful to obtain the optimal therapeutic profile depending on the intended clinical indication.
Uptake Inhibition. The ability of test compounds to block monoamine uptake by SERT was determined using the Neurotransmitter Transporter Uptake Assay Kit manufactured by Molecular Devices (Cat #R8173). Briefly, stably transfected cells expressing SERT were grown and plated into 384-well plates at a concentration of 20,000 cells per well. Plates were then incubated for 16-20 h at 37° C. and 5% CO2. The medium was then aspirated and replaced with 25 μL of assay buffer (20 mM HEPES in HBSS, containing 0.1% BSA) containing the test compounds at the appropriate concentrations. Plates were then centrifuged at 300 rpm for 15 s and then incubated at 37° C. for 30 minutes. At this time, 25 μL of the proprietary fluorescent dye solution was added, the plates were incubated at 37° C. for 60 minutes, and then fluorescence was quantified on a plate reader (excitation wavelength=440 nm, emission wavelength=520 nm). The proprietary dye solution contains a mixture of 1) a fluorescent dye that mimics the endogenous substrate of SERT and is thereby actively transported to the intracellular compartment in the absence of an inhibitor and 2) a masking dye that inhibits the fluorescence of dye 1 in the extracellular compartment. Therefore, the overall fluorescence of the system increases as the fluorescent dye is transported into the cells.

| Structure (SMILES) | Ki [1] | Clint ([2]; 1 μM compound) | half-life at 1 μM ([2]; both sexes, human, pooled human liver microsomes, pH 7.4, 1 μM compound) | half-life at 1 μM [3] | microsomal CLint at 1 μM [3] | half-life at 1 μM [4] | microsomal CLint at 1 μM [4] | half-life at 1 μM [5] | microsomal CLint at 1 μM [5] | half-life at 1 μM [6] | microsomal CLint at 1 μM [6] | inhibition at 10 µM [7] |
| --- | --- | --- | --- | --- | --- | --- | --- | --- | --- | --- | --- | --- |
| CN[C@@]1(c2ccccc2Cl)CCCCC1=O [(R)-ketamine, reference compound] | 2200 nM | – | – | – | – | – | – | – | – | – | – | – |
| CN[C@]1(c2ccccc2Cl)CCCCC1=O [(S)-ketamine, reference compound] | 700 nM | – | – | – | – | – | – | – | – | – | – | – |
| N[C@@]1(c2cccc(F)c2)CCCCC1=O [Compound 3R, (R)-2-amino-2-(3-fluorophenyl)cyclohexan-1-one] | – | <9.6 μL/min/m | > 2.42 h | 2 h | 11.6 µL/min/mg | > 2.42 h | < 9.6 µL/min/mg | 0.667 h | 34.6 µL/min/mg | 1.85 h | 12.5 µL/min/mg | 1.75% |
